pKd: −log10 of the molar value.
Assays:
[1] = molecular target: T1, NMDA receptor complex ([3H]TCP binding) (Rattus norvegicus, UniProt P35439); test: Assay B: TCP Modulation Assay (stimulation of [3H]TCP binding to synaptic plasma membranes); format: biochemical
T1 construct: Triton X-100 washed synaptic plasma membranes (SPM) prepared from rat forebrain; from tissue; host or cells: rat forebrain synaptic plasma membranes (male Sprague-Dawley, 30-45 days old), Triton X-100 washed
Description: [3H]TCP binding was performed using Triton X-100 washed synaptic plasma membranes (SPM) prepared from rat forebrain (30-45 day old, male SpragueDawley; Sasco, St. Charles, Mo.) as described previously [J. W. Thomas, W. F. Hood, J. B. Monahan, P. C. Contreras and T. L. O'Donohue, Brain Res., 442, 396-398 (1988)]. […] The samples were then filtered through glass fiber filters (Schleicher and Schuell #32) which were pretreated with 0.05% (v/v) polyethylenimine. The filters were washed and the radioactivity quantitated by liquid scintillation spectrometry. […] The EC50 values for the stimulation of [3H]TCP binding were determined using a four parameter logistic regression analysis.

[2] = system: recognition memory and attention in Alzheimer patients; settings: Alzheimer's disease patients, Searle Protocol NC6-93-06-009; cited from earlier work
[3] = system: implicit memory (priming) in Alzheimer patients; test: Assay C: Implicit Memory Paradigm (word identification test, priming) in Alzheimer patients; format: in vivo, human; settings: 15 mg twice daily
Description: In this test, subjects identify words presented in a visually degraded or masked format in which only parts of each letter are shown. Subjects view several lists of these degraded words over a period of three days, some of which are repeated from day-to-day and some that are new. Learning, or what is referred to as “priming”, is shown on this test when subjects identify a larger number of repeated or old words than new words. […] The diagnosis of probable Alzheimer's disease was made according to the criteria defined by the National Institute on Neurological Disorders and Stroke Work Group [G. McKhann et al, Neurology, 34, 939-944 (1984)]. This diagnosis was based on clinical evaluation that included neuropsychological assessment, laboratory blood screening, neurolgical examination, and either a CT or MRI scan. The criteria for entry into the study was Mini-mental State Examination score between 12 and 24 inclusive [M. Folstein et al, J. Psych. Res., 12, 189-198 (1975)], Global Deterioration Scale score between 3 and 5 inclusive [B. Reisberg et al, Am. J. Psych., 139, 1136-1139 (1982)], Modified […], ischemic score of 4 or less [G. W. Small et al, J. Clin. Psych., 46, 514-517 […]], and Hamilton Psychiatric Rating Scale for Depression score of 17 or less [M. Hamilton, Neurology and Neurosurgery, 23, 56-62 (1960)]. Patients with medical, neurological, or psychiatric illnesses other than Alzheimer's disease that could account for the abnormal mental status were excluded. […] The eligibility of patients was assessed during a 28-day period before the study began. […] All unused medication was returned and counted to check for compliance in taking the drug. […] The total increase in priming was calculated by first deriving the amount of priming that occurred on each trial (i.e., difference in the proportion of old and new words identified). […] Priming is not calculated on trial 1 because from the patient's perspective there are no old words on trial 1; the words begin to repeat on the second trial.

[4] = oral, tenth week of treatment, Alzheimer patients

SMILES | effect on glycine stimulation of [3H]TCP binding ([1]; in the presence of glycine (0.1-0.6 μM)) | performance on recognition memory and attentional tests [2] | patients who improved their priming scores from trial 2 to trial 9 [3, 4] [%] | total increase in priming vs placebo (post-hoc Scheffe test) [3, 4] | linear trend in priming across trials ([3]; trials 2 to 9, Alzheimer patients) | pKd ([1]; basal conditions)
NC1CONC1=O (single isomer, unassigned) [D-cycloserine, 4-amino-3-isoxazolidone] | reduces the maximal level of glycine stimulation | did not improve performance | 68 | significant difference in performance | significant linear trend across trials | 
c1csc(C2(N3CCCCC3)CCCCC2)c1 [[3H]TCP] |  |  |  |  |  | 7.36

— patent publication US6656962B2, “Use of amino-isoxazolidone compounds for improvement of lexical priming” (Pharmacia Corporation, priority 1994, dated 2003)
